Earlier results in US20050113433A1, “Compositions of a phenyl acetic acid cyclooxygenase-2 selective inhibitor and a cholinergic agent for the treatment of reduced blood flow or trauma to the central nervous system” (Pharmacia Corporation, priority 2003, published 2005).

Settings: administered to subjects following stroke

In the case of C[N+](C)(C)CCOP(=O)(O)OP(=O)(O)OC[C@H]1O[C@@H](n2ccc(N)nc2=O)[C@H](O)[C@@H]1O [citicoline], the behavioral parameters is listed as “improvement in behavioral parameters” and the infarction volume is listed as “decrease in infarction volume”.
